Data taken from patent US11584763B2, “Chromenopyridine derivatives as phosphatidylinositol phosphate kinase inhibitors” (HIBERCELL, INC., priority 2017, dated 2023).

Legend:
PIP4K 2A = target: T1, PIP4K 2A (Homo sapiens, UniProt P48426); assay: ADP-glo kinase assay PIP4K 2A; assay type: biochemical; design: 4 nM PIP4K2A (full length protein, SignalChem); purchased SignalChem; conditions: compounds listed under IC50 bin headings
T1 sequence (P48426 1-406): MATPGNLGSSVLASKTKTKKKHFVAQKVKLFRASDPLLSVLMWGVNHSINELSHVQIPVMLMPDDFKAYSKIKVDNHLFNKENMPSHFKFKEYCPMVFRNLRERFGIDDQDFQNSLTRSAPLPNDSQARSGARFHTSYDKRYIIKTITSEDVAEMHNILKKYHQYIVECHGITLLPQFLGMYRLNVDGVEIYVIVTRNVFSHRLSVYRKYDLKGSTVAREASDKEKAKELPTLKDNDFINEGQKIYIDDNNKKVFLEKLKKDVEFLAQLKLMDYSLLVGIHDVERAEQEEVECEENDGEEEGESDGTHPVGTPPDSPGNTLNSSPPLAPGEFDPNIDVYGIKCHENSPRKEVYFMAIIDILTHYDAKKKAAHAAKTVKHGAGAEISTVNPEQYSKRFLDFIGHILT
Procedure: Dilution series of the compounds were prepared in DMSO at 100 times the final assay concentration (n1=n0/3 in 10 points). The compounds were further diluted to three times the assay concentration in assay buffer (20 mM MOPS pH 7.2, 25 mM magnesium chloride, 0.005% Tween 20). 6 μL of the diluted compounds were added to a 384 well assay plate followed by 9 μL of a mix consisting of 4 nM PIP4K2A (full length protein, SignalChem) and 100 μM PI(5)P diC8 (Tebu-Bio). Enzyme and compounds were pre-incubated at room temperature for 15 minutes.
Then 3 μL of a solution containing 60 μM ATP (Promega) in assay buffer was added to the wells containing compound and enzyme and mixing was performed by pipetting several times. The reaction was incubated at room temperature for 1 h. Then 18 μL of ADP-Glo™ Reagent (Promega) was added to stop the kinase reaction and deplete the unconsumed ATP, mixing was performed by pipetting several times. The plate was incubated at room temperature for 40 minutes before addition of 36 μL of Kinase Detection Reagent (Promega) to convert ADP to ATP and introduce luciferase and luciferin to detect ATP. The reaction was incubated at room temperature for 40 minutes before the luminescence was measured in a in a Victor 3V 1420 multilabel counter (Perkin Elmer).
Percent inhibition of the compounds as compared to dimethyl sulfoxide treated control samples was calculated. Compound concentration versus percent inhibition were fitted to generate IC50 values.

PIP4K2B = target: T2, PIP4K2B (Homo sapiens, UniProt P78356); assay: Trans-FI P kinase assay PIP4K2B (PIP4KtypeIIB inhibition assay); assay type: biochemical; conditions: compounds listed under IC50 bin headings; 100 uM GTP; read-out: Trans-FI P kinase assays: PIP4K2B IC50
T2 construct: made in house; host or cells: E. coli
T2 sequence (P78356 1-416): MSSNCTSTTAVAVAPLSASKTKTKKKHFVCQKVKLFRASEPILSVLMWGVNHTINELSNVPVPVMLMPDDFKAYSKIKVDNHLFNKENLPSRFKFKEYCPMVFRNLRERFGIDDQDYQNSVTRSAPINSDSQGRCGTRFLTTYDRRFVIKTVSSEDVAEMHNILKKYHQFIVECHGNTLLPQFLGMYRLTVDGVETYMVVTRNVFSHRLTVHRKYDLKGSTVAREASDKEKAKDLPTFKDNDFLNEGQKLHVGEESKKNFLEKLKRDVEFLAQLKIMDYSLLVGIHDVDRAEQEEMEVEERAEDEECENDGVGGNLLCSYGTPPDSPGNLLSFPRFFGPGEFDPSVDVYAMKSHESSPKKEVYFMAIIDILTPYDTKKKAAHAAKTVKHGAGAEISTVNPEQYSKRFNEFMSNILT
Excerpt: GST tagged PIP4KtypeIIA and B enzymes were overexpressed in E. Coli and purified to >80% homogeneity. Phosphatidyl inositol-5-phosphate (PI5P, Cat. #850152, Avanti Polar Lipids Inc.) was used as the lipid substrate and phosphatidyl ethanolamine (DOPE 18:1, Cat. #850725, Avanti Polar Lipids Inc.) was used as the carrier lipid for assays. Ultrapure ATP and GTP was purchased from Bellbrooke Labs. ADP Glo reagents were obtained from Promega. Transcreener FI reagent was obtained from Bellbrooke labs.
GST-tagged PIP4KtypeIIB (3.4 uL, 2.77 mg/mL) was diluted to 5 mL using HNE buffer to yield 5× enzyme stock (25 nM)
Lipid Preparation: In a 10 mL pyrex glass vial, 1 ug of PI5P and 1 ug of DOPE were suspended in 2.5 mL of HEPES buffer mix and 2.5 mL of H:E buffer. The contents were mixed and sonicated for 3 min to yield a translucent lipid stock.
Compound Preparation: Compounds were stored as 5 mM stocks in neat DMSO as room temperature in glass vials. 5 mM stocks were diluted to 2 mM and then serially diluted (3×) in neat DMSO in 96 well polypropylene plates. From the serially diluted stocks, 3 uL was delivered into 250 uL of 25% DMSO (in water) to generate 5× compound stocks. Typically, the highest compound conc. was 24 uM.
The assay volume was kept at 25 uL. To each well of the reaction plate, 10 uL of lipid stock (1:1 ratio PI5P:DOPE) was delivered. This was followed by the addition of 5 uL of compound in 25% DMSO. Then, to each well, 5 uL of 25 nM (5×) typeIIB enzyme was delivered. The contents were mixed well and incubated for 1 h at 27 C. After 1 h, reaction was initiated by adding 5 uL of 500 uM GTP and the contents were mixed well with a multi-channel pipetteman. The final concentration of the reagents are as follows: 50 mM HEPES, pH 7.3, 10 mM MgCl2, 20 mM NaCl, 0.01% v/v triton-X100, 5% DMSO, 100 uM GTP, 80 uM (2 ug) PI5P, 2 ug DOPE, and 5 nM PIP4KIIB Typically, the highest conc. of compounds was 4.8 uM and the lowest conc. was 0.
After 2 h, the reaction was quenched by adding 25 uL of transcreener FI reagent. The contents were incubated at RT for 1 h and the Fluorescence (Ex: 584 Em: 623) was read using Molecular Devices Paradigm plate reader. […] The blanks were averaged and subtracted from all other wells. Using a calibration curve, RFU was converted to uM GDP (product). IC50 was calculated by plotting the residual activity (expressed as % No inhibitor control) vs. log [Inh. conc.]

Row | IC50 (PIP4K 2A) [nM] | IC50 (PIP4K2B) [nM] | SMILES
1 | 1 to 10 | 1 to 10 | CC1Oc2cc(N3CCCC3=O)c(F)cc2-c2cnc(Nc3cnc4c(c3)N3C(=O)CC[C@@H]3CO4)cc21 (stereo partly drawn) [Example 181, (6aR)-2-((9-fluoro-5-methyl-8-(2-oxopyrrolidin-1-yl)-5H-chromeno[4,3-c]pyridin-3-yl)amino)-6,6a,7,8-tetrahydro-9H-pyrido[2,3-b]pyrrolo[1,2-d][1,4]oxazin-9-one]
2 | ≤ 1 | 1 to 10 | COC(=O)N1CCOc2ncc(Nc3cc4c(cn3)-c3cc(F)c(N5CCCC5=O)cc3OC4C)cc21 (centres unmarked) [Example 150, methyl 7-((9-fluoro-5-methyl-8-(2-oxopyrrolidin-1-yl)-5H-chromeno[4,3-c]pyridin-3-yl)amino)-2,3-dihydro-1H-pyrido[2,3-b][1,4]oxazine-1-carboxylate]
3 | 1 to 10 | 10 to 100 | CC1Oc2cc(N3CCCC3=O)ccc2-c2cnc(Nc3cncc(NC(=O)Cc4cnc5ccccn45)c3)cc21 (centres unmarked) [Example 145, 2-(imidazo[1,2-a]pyridin-3-yl)-N-(5-((5-methyl-8-(2-oxopyrrolidin-1-yl)-5H-chromeno[4,3-c]pyridin-3-yl)amino)pyridin-3-yl)acetamide]
4 | ≤ 1 | 1 to 10 | CC1(C)Oc2cc(N3CCCC3=O)c(F)cc2-c2cnc(Nc3cnc4c(c3)N3C(=O)CC[C@H]3CO4)nc21 [Example 190, (S)-2-((9-fluoro-5,5-dimethyl-8-(2-oxopyrrolidin-1-yl)-5H-chromeno[3,4-d]pyrimidin-3-yl)amino)-6,6a,7,8-tetrahydro-9H-pyrido[2,3-b]pyrrolo[1,2-d][1,4]oxazin-9-one]
5 | 1 to 10 | 1 to 10 | O=C1CCCN1c1ccc2c(c1)OCc1cc(Nc3cnc4c(c3)N3C(=O)CC[C@@H]3CO4)ncc1-2 [Example 182, (R)-2-((8-(2-oxopyrrolidin-1-yl)-5H-chromeno[4,3-c]pyridin-3-yl)amino)-6,6a,7,8-tetrahydro-9H-pyrido[2,3-b]pyrrolo[1,2-d][1,4]oxazin-9-one]
6 | 1 to 10 | 10 to 100 | CC1Oc2cc(N3CCCC3=O)ccc2-c2cnc(Nc3cncc(NC(=O)CCc4cccc(NC(=O)/C=C/CN(C)C)c4)c3)cc21 (centres unmarked) [Example 176, (E)-4-(dimethylamino)-N-(3-(3-((5-((5-methyl-8-(2-oxopyrrolidin-1-yl)-5H-chromeno[4,3-c]pyridin-3-yl)amino)pyridin-3-yl)amino)-3-oxopropyl)phenyl)but-2-enamide]
7 | 10 to 100 | 10 to 100 | CN1CCN(c2cncc(Nc3cc4c(cn3)-c3ccc(N5CCCC5=O)cc3OC4(C)C)c2)S1(=O)=O [Example 186, 1-(5,5-dimethyl-3-((5-(5-methyl-1,1-dioxido-1,2,5-thiadiazolidin-2-yl)pyridin-3-yl)amino)-5H-chromeno[4,3-c]pyridin-8-yl)pyrrolidin-2-one]
8 | 1 to 10 | 100 to 1000 | CC1Oc2cc(N3CCCC3=O)ccc2-c2cnc(Nc3cncc(N4CCN(C)S4(=O)=O)c3)cc21 (centres unmarked) [Example 185, 1-(5-methyl-3-((5-(5-methyl-1,1-dioxido-1,2,5-thiadiazolidin-2-yl)pyridin-3-yl)amino)-5H-chromeno[4,3-c]pyridin-8-yl)pyrrolidin-2-one]
9 | 1 to 10 | 10 to 100 | CC(=O)Nc1cc(Nc2cc3c(cn2)-c2ccc(N4CCCC4=O)cc2OC3C)cnn1 (centres unmarked) [Example 129, N-(5-((5-methyl-8-(2-oxopyrrolidin-1-yl)-5H-chromeno[4,3-c]pyridin-3-yl)amino)pyridazin-3-yl)acetamide]
10 | 1 to 10 | 1 to 10 | CC1Oc2cc(N3CCCC3=O)ccc2-c2cnc(Nc3cncc(NC(=O)c4cccc5[nH]ccc45)c3)cc21 (centres unmarked) [Example 123, N-(5-((5-methyl-8-(2-oxopyrrolidin-1-yl)-5H-chromeno[4,3-c]pyridin-3-yl)amino)pyridin-3-yl)-1H-indole-4-carboxamide]

Further lines, the compound ahead of its results:

Row | SMILES | IC50 (PIP4K 2A) [nM] | IC50 (PIP4K2B) [nM]
11 | CC1Oc2cc(N3CCCC3=O)ccc2-c2cnc(Nc3cncc(NC(=O)c4ccc(F)cc4)c3)cc21 (centres unmarked) [Example 119, 4-fluoro-N-(5-((5-methyl-8-(2-oxopyrrolidin-1-yl)-5H-chromeno[4,3-c]pyridin-3-yl)amino)pyridin-3-yl)benzamide] | 10 to 100 | 10 to 100
12 | CC1Oc2cc(N3CCCC3=O)ccc2-c2cnc(Nc3cncc(NC(=O)[C@H]4C[C@@H]4c4ccccc4)c3)cc21 (stereo partly drawn) [Example 111, (1S,2S)—N-(5-((5-methyl-8-(2-oxopyrrolidin-1-yl)-5H-chromeno[4,3-c]pyridin-3-yl)amino)pyridin-3-yl)-2-phenylcyclopropane-1-carboxamide] | 1 to 10 | 10 to 100
13 | COc1cccc(C(=O)Nc2cncc(Nc3cc4c(cn3)-c3ccc(N5CCCC5=O)cc3OC4C)c2)c1 (centres unmarked) [Example 121, 3-methoxy-N-(5-((5-methyl-8-(2-oxopyrrolidin-1-yl)-5H-chromeno[4,3-c]pyridin-3-yl)amino)pyridin-3-yl)benzamide] | ≤ 1 | 1 to 10
14 | CC1Oc2cc(N3CCCC3=O)ccc2-c2cnc(Nc3cncc(NC(=O)CO)c3)cc21 (centres unmarked) [Example 101, 2-hydroxy-N-(5-((5-methyl-8-(2-oxopyrrolidin-1-yl)-5H-chromeno[4,3-c]pyridin-3-yl)amino)pyridin-3-yl)acetamide] | 1 to 10 | 10 to 100
15 | CC1Oc2cc(N3CCCC3=O)ccc2-c2cnc(Nc3cncc(NC(=O)Nc4ccccn4)c3)cc21 (centres unmarked) [Example 102, 1-(5-((5-methyl-8-(2-oxopyrrolidin-1-yl)-5H-chromeno[4,3-c]pyridin-3-yl)amino)pyridin-3-yl)-3-(pyridin-2-yl)urea] | 1 to 10 | 10 to 100
16 | CC1Oc2cc(N3CCCC3=O)ccc2-c2cnc(Nc3cncc(NC(=O)c4ccnc(N)c4)c3)cc21 (centres unmarked) [Example 115, 2-amino-N-(5-((5-methyl-8-(2-oxopyrrolidin-1-yl)-5H-chromeno[4,3-c]pyridin-3-yl)amino)pyridin-3-yl)isonicotinamide] | ≤ 1 | 1 to 10
